A short description of this data set: gradient 5% acetonitrile 3 min, to 50% in 2 min, to 85% in 15 min, held 3 min, 100 µL/min. The following applies: column: Zorbax Extend-C18 2.1 x 50 mm; eluents: water / acetonitrile, 0.1% formic acid. In outline:
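Over 3 months, pure standards in mixtures of ~100 molecules were run by HPLC coupled to a quadrupole time-of-flight mass spectrometer in positive and negative ionization mode. The column was a Zorbax Extend-C18 (2.1 × 50 mm, 1.8 μm) at 100 μL/min, eluted with water and acetonitrile each holding 0.1% formic acid, with 40 μL dead and 900 μL dwell volumes. Retention time was determined from adduct peaks chosen by software and checked manually.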
As for `Cc1ccc(Nc2ncccc2S(N)(=O)=O)cc1`, the RP-LC retention time amounted to 795 s. `CS(=O)(=O)N1CCN(C(=O)c2ccsc2)CC1`: the RP-LC retention time came out at 606 s. The figure for `CCCNc1cc(N2CCC(CCC(=O)NCc3c(C)nn(C)c3C)CC2)ncn1` is 594 s.

In turn, `CCn1cc(C(=O)NCc2ccc(C)o2)c2cccnc21` yielded an RP-LC retention time of 742 s.

Regarding `CC(=O)Nc1ccc(OCc2cc(C(=O)NC3CCC(C)CC3)no2)cc1` (centres undefined), the RP-LC retention time was 860 s. Turning to `CN(c1ccccc1)S(=O)(=O)c1ccc(C(=O)Nc2nccs2)cc1`, the RP-LC retention time worked out at 807 s. Molecule `O=C(c1cn2cc(Cl)ccc2n1)N1CCN(c2ccccc2F)CC1` registered an RP-LC retention time of 833 s.

Take `O=C(NCCCc1ccccc1)C1CCCN(c2nccnc2Oc2ccccc2)C1` (centres undefined): the RP-LC retention time was determined as 1020 s.

Turning to `CCC(C)NC(=O)N1CCN(Cc2nc3cc(C(=O)N(CC)CC)ccc3o2)CC1` (centres undefined), the RP-LC retention time amounted to 619 s. As for `O=C(Nc1ccc(F)cc1)Nc1c(-c2ccccc2)nc2ccccn12`, the figure is 651 s; as for `COc1cc([C@@H]2c3cc4c(cc3[C@H](O)[C@@H](CO)[C@@H]2C(=O)NCCc2ccccc2)OCO4)cc(OC)c1OC`, 745 s.

Take `CC(=O)c1cccc(Nc2c(C(=O)N3CCCC3)cnc3nc(C)ccc23)c1`: the RP-LC retention time stood at 587 s. With `C[C@H](CCC(=O)NCCS(=O)(=O)O)[C@H]1CC[C@H]2[C@@H]3[C@H](O)C[C@@H]4C[C@H](O)CC[C@]4(C)[C@H]3C[C@H](O)[C@]12C`, the RP-LC retention time was determined as 665 s. As to `CC(=O)C1=C(O)C(=O)N(C(C)c2ccccc2)C1c1ccccc1` (centres undefined), the RP-LC retention time turned out to be 836 s. As for `Cc1nc(Nc2ccccn2)sc1C(=O)N1CCN(c2ccccc2F)CC1`, the figure is 841 s. The figure for `Cc1cc(NC(=O)Nc2ccc3c(c2)CCN3S(C)(=O)=O)ccc1Br` is 943 s; for `Cc1nn(CC(=O)NCCCN(C)C)c(=O)c2nc(-c3ccccc3)sc12` it is 604 s. In the case of `Cc1ccc2c(c1)N(CCCC(=O)N1CCN(Cc3cn(C)c4ccccc34)CC1)C(=O)CO2`, the RP-LC retention time was 706 s. The figure for `CC1CN(C(=O)CSc2cn(CC(=O)N3CCCCC3)c3ccccc23)CC(C)O1` (centres undefined) is 812 s. As for `CC1CN2C=NC(N3CCN(C(=O)Nc4ccc(F)cc4F)CC3)=CC2=N1` (centres undefined), the figure is 664 s. The figure for `O=C(Nc1cnc(-c2ccc(F)cc2)nc1)C1CC1` is 829 s; for `COc1cccc(N2CCN(S(=O)(=O)c3cc(-c4cc(C(F)(F)F)[nH]n4)sc3C)CC2)c1` it is 1120 s. `Cc1sc2ccn(Cc3ccc(F)cc3)c(=O)c2c1C(=O)NC1CCCCC1` showed an RP-LC retention time of 973 s. As for `CC(=O)c1c(C)oc2ccc(NS(=O)(=O)c3cccc([N+](=O)[O-])c3)cc12`, the figure is 822 s; as for `COc1ccc(Cn2nc3c(S(=O)(=O)N4CCCC4)cccn3c2=O)cc1`, 804 s; as for `COc1ccc(OC)c(CNC(=O)c2cc(-c3ccccc3)cn2C)c1`, 1020 s.

`CCOc1cc(=O)n2c(c1C(=O)NCc1ccc(C)o1)CCCCC2` yielded an RP-LC retention time of 688 s.

Regarding `CCN1CCN(c2c(S(=O)(=O)c3ccc(OC)cc3)cnc3cc(OC)c(OC)cc23)CC1`, the RP-LC retention time came out at 628 s.

`CCN(CC)CCNC(=O)c1nc(-c2oc3c(C)cccc3c2C)no1`: the RP-LC retention time was determined as 677 s.

Turning to `COc1cccc(NC(=O)N2CCC(n3c(C(F)(F)F)nc4cccnc43)CC2)c1`, the RP-LC retention time stood at 861 s. The figure for `Cc1nc(-c2csc(S(=O)(=O)N3CCCC(C(=O)NC4CCCCCCC4)C3)c2)no1` (centres undefined) is 1060 s; for `CCCc1ccc(S(=O)(=O)N2CCC3(CC2)NCCN=C3NCc2cccc(C)c2)cc1` it is 870 s; for `COCc1nc2cccnc2n1C1CCN(C(=O)Nc2cc(Cl)c(OC)cc2OC)CC1` it is 723 s. As for `CC(C)c1ccc(NC(=O)Cn2c(=O)cc(-c3nc(C4CC4)no3)c3ccccc32)cc1`, the figure is 1120 s; as for `COc1ccc(Cc2nnc(C3CCN(C(=O)Cc4cccs4)CC3)s2)cc1`, 745 s. `CCOCCCNc1ccc(-c2nnc(-c3ccc(C)cc3)o2)cn1` had an RP-LC retention time of 801 s. As for `Cc1ccccc1NC(=O)CN1C(=O)C2CCCCN2c2ccc(S(=O)(=O)N(C)C)cc21` (centres undefined), the figure is 607 s; as for `O=C(CN1CCC(c2nnc(-c3ccc(F)cc3)o2)CC1)Nc1cccnc1`, 539 s; as for `CCCC(=O)Nc1ccc2c(c1)CN(C(=O)c1ccc(F)cc1F)C(C(=O)N(C)C)C2` (centres undefined), 704 s. As for `COCCN1CCC2(CC1)CN(Cc1ccccc1OC(C)C)Cc1ccccc1O2`, the figure is 611 s; as for `CCOC(=O)c1ccc(N(C)c2csc(-c3ccccc3)n2)cc1`, 1270 s.

In turn, `Cc1ccn2cc(C(=O)NCc3ccc(F)cc3F)nc2c1` registered an RP-LC retention time of 655 s. As for `Cc1ncc2c(n1)C[C@@H]1CC[C@H]2N1C(=O)NCCc1ccccc1`, the figure is 647 s. In turn, `O=C(c1cnccn1)N1CCc2nn(CC3CC3)c(=O)n2CC1` showed an RP-LC retention time of 598 s. The figure for `CCCn1c(=O)c(N2CCC(NC(=O)Nc3ccc(Cl)cc3)CC2)nc2ccccc21` is 1090 s; for `Cn1nc(-c2nc(C3CC3)no2)c2c1CCN(C(=O)c1cccc(C(F)(F)F)c1)C2` it is 906 s.

`CC(=O)Nc1ccc(-c2noc(C3CCCN(C(=O)c4ccoc4)C3)n2)cc1` (centres undefined): the RP-LC retention time stood at 731 s. The figure for `Cc1c(Cl)cccc1Nc1c(-c2ccc(O)cc2)nc2ncccn12` is 705 s. The figure for `Cc1ccc(NC(=O)Cn2c(=O)c3cc(C4CC4)nn3c3ncccc32)c(C)c1` is 808 s; for `CN(C)CC/C=C1/c2ccccc2COc2ccccc21` it is 760 s; for `COCC1(O)CCOC2(CCN(Cc3ccc(C)cc3)CC2)C1` (centres undefined) it is 556 s. Molecule `Cc1nn(C)cc1CN(C)C(=O)NC1CCCCC1` came in with an RP-LC retention time of 611 s.

The molecule `O=C(c1ccc2c(c1)OCO2)N1CCC(c2nc(C3CC3)no2)C1` (centres undefined) yielded an RP-LC retention time of 740 s. The molecule `COc1ccc(-c2noc(C3CCCN3C(=O)c3ccc(Cl)cc3)n2)cc1OC` (centres undefined) gave an RP-LC retention time of 959 s. As for `Cc1cc(F)cc2c(=O)c3c([nH]c12)CCN(CC(=O)Nc1cc(F)cc(F)c1)C3`, the figure is 635 s; as for `COc1cc(CNC(=O)C2CCCN(c3nccnc3Sc3ccccc3)C2)cc(OC)c1` (centres undefined), 986 s; as for `O=C(Nc1nc(-c2ccc3ccccc3c2)cs1)c1cccc(Cn2cc(Cl)cn2)c1`, 1140 s. As for `Cc1nc(-c2ccc(N3CCN(C(=O)c4nn(C)c5ccccc45)CC3)nc2)sc1C`, the figure is 966 s; as for `COc1cccc(N2CCN(C(=O)c3cn(-c4ccc(NC(=O)C5CC5)cn4)cn3)CC2)c1`, 743 s.

With `CSc1cccc(NC(=O)C2CCN(S(=O)(=O)c3cn(C)cn3)CC2)c1`, the RP-LC retention time turned out to be 736 s. The figure for `CCC1(C(=O)Nc2ccc(C(C)C)cc2)CCCCC(=O)N1` (centres undefined) is 872 s. The figure for `Cc1ccc(-c2nc3cnccn3c2NCCC(=O)NC(C)c2cccnc2)cc1` (centres undefined) is 569 s; for `O=C1C2N=NN(Cc3nc(-c4ccc(Br)cc4)no3)C2C(=O)N1c1cccc(F)c1` (centres undefined) it is 1080 s. The figure for `Cc1cccc(-c2noc(Cn3ccn(Cc4ccc(Cl)cc4)c(=O)c3=O)n2)c1` is 960 s; for `Cc1ccc(-c2noc(-c3sccc3NC(=O)c3ccnn3C)n2)cc1` it is 1380 s; for `Cc1sc2ncnc(N3CCCC(C)C3)c2c1C(=O)Nc1cc(F)ccc1Cl` (centres undefined) it is 1450 s. `COc1ccccc1NC(=O)CSCC(=O)N1CCC(C(N)=O)CC1` gave an RP-LC retention time of 619 s. The figure for `Fc1ccc(-c2nc(CC3CCNC3)no2)cc1` (centres undefined) is 621 s; for `CSc1ncccc1C(=O)Nc1ccc2c(c1)CCC(=O)N2C` it is 684 s; for `CCN1C(=O)c2cccnc2Sc2cc(NC(=O)c3ccccc3Cl)ccc21` it is 828 s.

In turn, `CN(C)CCNC(=O)c1ccnc(-c2ccsc2)c1` showed an RP-LC retention time of 573 s. As for `Cc1ccc(F)cc1NC(=O)c1csc(-c2cn(C)c3ncccc23)n1`, the figure is 1130 s; as for `Cc1cccc2nnc(N3CCC(C(=O)NCc4ccccc4Cl)CC3)n12`, 679 s.

Molecule `COc1ccc(OC)c(NC(=O)Cc2csc3nc(-c4ccc(OC)c(OC)c4)cn23)c1` yielded an RP-LC retention time of 738 s. Turning to `Cc1nnc(-c2cc(NC(=O)c3cccc(Br)c3)c(C)s2)o1`, the RP-LC retention time came out at 938 s.

For `COc1cccc(-n2ccc(=O)c(-c3nc(-c4ccc5c(c4)OCO5)no3)n2)c1`, the RP-LC retention time was found to be 799 s. The figure for `O=C1c2cc(NC(=O)C3(c4cccs4)CCCC3)ccc2OCCC2CCCCN12` (centres undefined) is 974 s; for `CC(C)Oc1ccc(-c2noc(Cn3nc(-c4ccc5c(c4)OCO5)ccc3=O)n2)cc1` it is 1080 s. The figure for `CCOC(=O)CNC(=O)N1CCN(Cc2nc3cccnc3n2-c2ccc(C)cc2)CC1` is 611 s.

Values taken from the METLIN SMRT retention time set (Domingo-Almenara et al. 2019).
